How the values were obtained:
hTRPV1 = molecular target: T1, hTRPV1 (Homo sapiens, UniProt Q8NER1); assay: whole-cell patch-clamp of hTRPV1 currents activated by capsaicin; assay type: cell-based; settings: ROSA 50 μM; agonist capsaicin 1 μM; read-out: inhibition of TRPV1 currents
T1 construct: expressed in transfected cells; host or cells: HEK293T
Experimental: (§1) HEK293T cell line was obtained from the Cell Resource Center, Peking Union Medical College. HEK293T cells were maintained in Dulbecco’s modified Eagle’s medium (DMEM, Gibco) supplemented with 10% fetal bovine serum at 37 °C with 5% CO2. […] The next day, determine the plasmid transfection status by observing green fluorescence based on expression of enhanced GFP as an indicator. […] When conducting experiments on HEK293T cells transfected with G573S point mutant TRPV3 plasmid, we replaced culture medium with or without compounds after 4 h of transfection and then observed green fluorescence of HEK293T cell after 10 h. As for the relative fluorescence intensity, we convert the image to 8 bit grayscale using ImageJ (Https://imagej.net/software/fiji/downloads) and set an appropriate threshold value to reduce background noise and enhance the image contrast.
(§2) All patch-clamp recordings were conducted 16 to 24 h after transfection using an EPC10 amplifier powered by PatchMaster software (HEKA) (https://www.heka.com/downloads/downloads_main.html#down_patchmaster) at room temperature. […] Currents were recorded at a potential ramp from −100 mV to +100 mV for 1000 ms with 1000-ms intervals (for whole-cell recordings) or a persistent potential of −60 mV (inside-out patch recordings). […]

[1] = test system: Car-induced ear swelling and dorsal skin inflammation in mice; assay: mouse model of ear swelling and dorsal skin inflammation induced by skin sensitizer Car (3%); assay type: in vivo
From the text: Adult C57BL/6J mice (aged 6–8 weeks, weighing 20 ± 2 g) were purchased from the Beijing Vital River Laboratory Animal Technology Co. Ltd. TRPV3-KO mice were purchased from Cyagen Biosciences Inc. All mice were housed in plastic cages with natural poplar wood bedding materials, accommodating three to five mice per cage. The housing environment was maintained at a controlled room temperature of (23 ± 2) °C and humidity of (50 ± 5) %, with 12-h light/dark cycle (lights on at 7:00 AM and off at 7:00 PM). Mice had free access to food and water. All animal test protocols were approved by the Institutional Animal Care and Use Committee of Qingdao University Health Science Center and were conducted in accordance with institutional and national guidelines for the use and care of animals in experiments. All mice were anesthetized with isoflurane (1%–1.5%) using an isoflurane gas anesthesia device and were euthanized under anesthesia.
Skin sensitizer Car was dissolved in saline solution containing 30% ethanol. The dorsal skin or ear of mice was swabbed with 3% Car for four consecutive days. To investigate the effects of ROSA, it was diluted to concentration of 0.1/1/10 mM with saline and topically applied on the ear and dorsal skin once a day for 4 days. The control group only received swabs with the solvent.

[2] = test system: HEK293T cells expressing hTRPV3; assay: Hoechst 33342/propidium iodide double staining cell death assay; assay type: cell-based; settings: inhibitor 20 μM added 1 h before Car 300 μM
Experimental: For cell death assay, HEK293T cells transfected with hTRPV3 were seeded in 6-well plates and randomly divided into different groups. TRPV3 and NF-κB inhibitors were added 1 h before the addition of Car. After administration of Car for 1 h, cell death was detected using Hoechst 33342/propidium iodide Double Stain Kit (Solarbio). After staining, cells were resuspended with PBS buffer. Five random view images in each group were taken under a microscope (Eclipse Ti, Nikon) and counted using ImageJ software (National Institutes of Health).

mTRPV2 = molecular target: T2, mTRPV2 (Mus musculus, UniProt Q9WTR1); assay: whole-cell patch-clamp of mTRPV2 currents activated by 2-APB; assay type: cell-based; settings: ROSA 50 μM; agonist 2-APB 2 mM; read-out: inhibition of TRPV2 currents
T2 construct: expressed in transfected cells; host or cells: HEK293T
T2 sequence (Q9WTR1 1-756): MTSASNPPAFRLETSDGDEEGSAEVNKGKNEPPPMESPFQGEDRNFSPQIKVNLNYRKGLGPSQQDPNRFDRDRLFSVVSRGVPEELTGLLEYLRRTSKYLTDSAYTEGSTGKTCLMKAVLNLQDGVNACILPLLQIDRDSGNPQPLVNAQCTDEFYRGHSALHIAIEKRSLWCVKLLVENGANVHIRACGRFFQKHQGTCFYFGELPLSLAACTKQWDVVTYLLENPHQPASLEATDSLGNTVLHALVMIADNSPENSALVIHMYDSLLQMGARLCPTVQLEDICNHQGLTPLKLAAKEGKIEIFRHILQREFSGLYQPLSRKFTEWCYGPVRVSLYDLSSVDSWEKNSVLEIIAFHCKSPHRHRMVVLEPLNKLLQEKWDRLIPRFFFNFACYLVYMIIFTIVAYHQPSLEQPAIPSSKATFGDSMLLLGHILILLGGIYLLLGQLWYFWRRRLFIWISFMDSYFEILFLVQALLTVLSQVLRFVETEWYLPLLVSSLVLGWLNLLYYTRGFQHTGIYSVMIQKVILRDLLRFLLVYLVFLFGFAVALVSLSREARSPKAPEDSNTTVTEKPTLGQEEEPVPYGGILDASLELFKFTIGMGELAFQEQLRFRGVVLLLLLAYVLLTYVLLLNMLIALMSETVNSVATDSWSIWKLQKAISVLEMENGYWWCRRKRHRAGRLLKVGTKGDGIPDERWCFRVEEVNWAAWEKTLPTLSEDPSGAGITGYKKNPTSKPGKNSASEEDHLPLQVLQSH
Experimental: as §1, §2

T1 sequence (Q8NER1 whole entry): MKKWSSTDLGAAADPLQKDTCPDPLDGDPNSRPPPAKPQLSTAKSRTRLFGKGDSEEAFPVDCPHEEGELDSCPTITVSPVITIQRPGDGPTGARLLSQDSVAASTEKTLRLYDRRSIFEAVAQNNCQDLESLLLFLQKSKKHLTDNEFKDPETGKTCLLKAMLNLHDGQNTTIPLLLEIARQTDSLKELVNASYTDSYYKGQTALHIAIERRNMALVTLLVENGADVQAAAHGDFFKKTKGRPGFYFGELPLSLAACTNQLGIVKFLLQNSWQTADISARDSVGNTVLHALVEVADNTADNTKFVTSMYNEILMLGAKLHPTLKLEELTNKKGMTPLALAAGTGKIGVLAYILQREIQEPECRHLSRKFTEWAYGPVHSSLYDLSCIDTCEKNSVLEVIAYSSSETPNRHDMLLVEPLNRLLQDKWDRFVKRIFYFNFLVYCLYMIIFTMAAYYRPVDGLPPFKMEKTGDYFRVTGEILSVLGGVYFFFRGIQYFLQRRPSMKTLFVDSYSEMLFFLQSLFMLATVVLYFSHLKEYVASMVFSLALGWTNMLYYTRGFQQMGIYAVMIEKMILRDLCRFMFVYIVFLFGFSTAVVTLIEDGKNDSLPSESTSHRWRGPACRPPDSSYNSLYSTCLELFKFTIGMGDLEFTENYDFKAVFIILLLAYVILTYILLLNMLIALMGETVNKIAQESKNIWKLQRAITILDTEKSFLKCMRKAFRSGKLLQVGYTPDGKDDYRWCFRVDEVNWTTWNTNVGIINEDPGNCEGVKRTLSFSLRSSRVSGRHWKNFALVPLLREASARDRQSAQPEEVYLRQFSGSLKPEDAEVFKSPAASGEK

In the case of `O=C(/C=C/c1ccc(O)c(O)c1)O[C@H](Cc1ccc(O)c(O)c1)C(=O)O` [ROSA, rosmarinic acid], the inhibition at 50 µM (hTRPV1) is reported as 1.8 ± 11.7%, the “ear thickness in Trpv3 KO mice” value ([1]; topical ROSA 10 mM, Trpv3 KO mice, Car) is reported as “no further reduction of ear thickness” and the “ear and dorsal skin inflammation” value ([1]; topical ROSA 0.1, 1.0 and 10 mM once a day for 4 days, 3% Car, compared to Car alone) is reported as “significantly alleviated the ear and dorsal skin inflammation”. For the same molecule, the ear swelling scores ([1]; topical ROSA 0.1, 1.0 and 10 mM, 3% Car, compared to Car alone) was “reduced the ear swelling scores in both dose- and time-dependent manner”, the ear thickness ([1]; topical ROSA, 3% Car, compared to Car alone) was “reduction in ear thickness was also evident, starting on the third day” and the “dermatitis scores, dorsal skin” value ([1]; topical ROSA, 3% Car, fourth day) was “significant difference in dermatitis scores between the ROSA group and the Car group”. It also gave a cell death ratio [2] of 17% and an inhibition at 50 µM (mTRPV2) of 21 ± 6.1%.

Reference: PMC12206033, “Selective inhibition of TRPV3 channel by natural rosmarinic acid and its analogs for alleviation of skin lesions through downregulation of NF-κB pathway” (The Journal of Biological Chemistry, 2025)
